# Data reported in patent publication US20070244200A1, “Method for triggering angiogenic response” (priority 2006, published 2007).
# Where “and” joins values, the source holds several entries; their conditions need not be identical. Equal entries are not always repeated.
# System: rabbit aortic endothelial cells (RAEC)
# Experiment: Cord formation on Matrigel (in vitro angiogenesis assay)
# Type: cell-based
# Details: 18-24 h; for Percent Increase in Cord length, Set I / Percent Increase in Cord length, Set II / Percent Increase in Cord length, Set III: individual picture scores; for Percent Increase in Cord length, Mean: mean of 18 scores
# Protocol: In carrying this invention, materials needed in this example include commercially available items as follows: a 96 Well Plate, for example, flat bottom 96 well plate (Falcon 353072); Media-BM-2 (Clonetics CC-3162), DMEM (Gibco Cat#11960044); Matrigel-Beckton Dickinson (Cat#40234); Cells; HUVEC (2×10^6/ml) in EBM-2 in EBM-2; and Image Analysis-Image-Pro Plus In this example, the assay is performed under hood is, a Laminar Flow Hood. Frozen Matrigel (Beckton Dickinson 40234) is placed overnight on ice to thaw. Then, a concentration of matrigel is adjusted to 10 mg/ml using DMEM media. An ice cold 96 well plate is then placed on ice in a flat dish. Using an ice cold tip, gently layer 60 μl of matrigel (10 mg/ml; kept on ice) in each well. Gently tap the plate so that matrigel is evenly distributed in each well. The assay thereafter involves the following steps and protocols of: Removing the ice under the plate and incubate the plate for 15 min at room temperature; transfer the plate to a 37° C. incubator for at least 30 min for the Matrigel to polymerize; prepare methanandamide at 2X the desired concentration in culture media; harvest RAEC (rabbit aortic endothelial cells) in culture media and adjust the cell density to 2×10^5/ml; mix 500 μl of drug with 500 μl of cell suspension and place 200 μl of this suspension in duplicate wells on polymerized matrigel (being cautious to not touch matrigel with the tip and to dispense cells very gently and slowly on the matrigel to avoid damage to matrigel layer); incubate the compound concentration in a 37° C. humidified incubator for 18-24 h observe condition of cords under a microscope.; take at least three pictures (10 X) from different fields from each well (or six pictures from duplicate wells); count number of junctions and tube length (mm) from each picture using Image Pro Image Analysis System; and analyze the data.
# In accordance with a preferred embodiment of the present invention, the effect of methanandamide on rabbit aortic endothelial cells (RAEC) was tested for its ability to induce cord formation on matrigel. This process entails an accepted in vitro assay for angiogenesis. The procedures involve analyses with three different concentrations of methanandamide compound and repeated the experiments three different times in duplicate. As mentioned earlier above in the protocol, the 3 pictures from each well were taken. Therefore, for each concentration (data point) we have 18 scores. The analysis entails the measure of two parameters: (1) cord length; and (2) cord junction number.
# In FIG. 1, there is shown representations for eighteen (18) scores of data points for each concentration of methanandamide compound analyzed. The scores indicated for each concentration of methanandamide resulted from three different concentrations of methanandamide, i.e. 10 nM, 50 nM, and 100 nM. Three (3) pictures taken from each field or well (Six (6) pictures for duplicate wells). Each treatment or analysis was done in duplicate in 3 separate sets, i.e., Set I, Set II, and Set III. Therefore, for each concentration data point has eighteen (18) scores (3×2×3=18 data points).
smiles,measurement,setting,value
"CCCCC/C=C\C/C=C\C/C=C\C/C=C\CCCC(=O)N[C@H](C)CO [Methanandamide, methyl arachidonyl ethanolamide]","Percent Increase in Cord length, Set I",Methanandamide 10 nM,12% (2×) and 11% and 9% and 13% and 10%
same,"Percent Increase in Cord length, Set II",Methanandamide 10 nM,16% and 21% and 14% and 18% and 13% and 12%
same,"Percent Increase in Cord length, Set III",Methanandamide 10 nM,14% and 10% and 17% (2×) and 13% and 15%
same,"Percent Increase in Cord length, Mean",Methanandamide 10 nM,14%
same,"Percent Increase in Cord length, Set I",Methanandamide 50 nM,17% and 22% and 25% and 32% (2×) and 19%
same,"Percent Increase in Cord length, Set II",Methanandamide 50 nM,17% and 26% and 22% (2×) and 28% and 18%
same,"Percent Increase in Cord length, Set III",Methanandamide 50 nM,"34% and 25% and 30, 30, Percent (2×) and 26% and 35%"
same,"Percent Increase in Cord length, Mean",Methanandamide 50 nM,25%
same,"Percent Increase in Cord length, Set I",Methanandamide 100 nM,45% and 42% (2×) and 39% and 47% and 40%
same,"Percent Increase in Cord length, Set II",Methanandamide 100 nM,37% and 41% and 44% (2×) and 32% and 34%
same,"Percent Increase in Cord length, Set III",Methanandamide 100 nM,38% and 42% and 44% and 47% and 36% and 34%
same,"Percent Increase in Cord length, Mean",Methanandamide 100 nM,40%
